In patent US20050101595A1, “N-containing cycloalkyl-substituted amino-thiazole derivatives and pharmaceutical compositions for inhibiting cell proliferation and methods for their use” (PFIZER INC., priority 2003, published 2005):
Counter-ions that a name gives are not always drawn. Like-named read-outs stand apart in the source and are kept apart here.

Key:
CDK2/Cyclin A = CDK2/Cyclin A (Homo sapiens, UniProt P24941); test: Inhibition of CDK2/Cyclin A Retinoblastoma Kinase Activity; type: biochemical; settings: for Ki: apparent Ki, CDK2/proteolyzed cyclin A, Rb fragment substrate, 25 μM ATP
Summary of the method: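 Baculovirus-expressed CDK2 complexed with proteolyzed cyclin A (10 or 19 nM), Rb fragment substrate, 25 μM [32P/33P]ATP, HEPES pH 7.4, 30 °C for 60 or 75 min under initial-rate conditions. Filter capture and phosphorimager readout; apparent Ki fitted to competitive or tight-binding competitive inhibition.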

[1] = molecular target: human CDK4 and genetically truncated (1-264) cyclin D3 (Homo sapiens, UniProt P11802); test: Inhibition of CDK4/Cyclin D Retinoblastoma Kinase Activity; type: biochemical; settings: for Ki: apparent Ki, CDK4/truncated cyclin D3, Rb fragment substrate, 25 μM ATP
Summary of the method: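 Human CDK4/truncated cyclin D3 (1-264) complex from baculovirus-infected insect cells, 5 nM, phosphorylating Rb fragment (residues 386-928, His-tagged) with 25 μM [32/33P]ATP in HEPES pH 7.4, MgCl2, 2% DMSO at 30° C. for 20 min (60 min for tight binders). Filter-captured radioactivity by phosphorimager; apparent Ki from competitive or tight-binding fits.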

HCT-116 cell line = test: Inhibition of cell growth, tetrazolium salt (MTT) assay; type: cell-based; settings: for IC50: Homo sapiens, HCT-116, 120 h, MTT, three to five days, read-out: HCT-116 IC50; for HCT-116 % Inhibition at 0.25 μM: 0.25 μM compound
Summary of the method: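 First, cells were seeded in McCoy's 5A medium and held 4 h. Next, inhibitor concentrations in 0.5% (v/v) DMSO were applied for three to five days at 37° C, 5% CO2. Finally, after 4 h with 0.2 mg/mL MTT and medium removal, solubilized formazan was measured at 540 nm.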

[2] = 0.1 μM compound, HCT-116, Table 4
[3] = 0.03 μM compound, Table 4, 0.03 µM

Sequence of human CDK4 and genetically truncated (1-264) cyclin D3 (P11802 whole entry, the tested form may be a part): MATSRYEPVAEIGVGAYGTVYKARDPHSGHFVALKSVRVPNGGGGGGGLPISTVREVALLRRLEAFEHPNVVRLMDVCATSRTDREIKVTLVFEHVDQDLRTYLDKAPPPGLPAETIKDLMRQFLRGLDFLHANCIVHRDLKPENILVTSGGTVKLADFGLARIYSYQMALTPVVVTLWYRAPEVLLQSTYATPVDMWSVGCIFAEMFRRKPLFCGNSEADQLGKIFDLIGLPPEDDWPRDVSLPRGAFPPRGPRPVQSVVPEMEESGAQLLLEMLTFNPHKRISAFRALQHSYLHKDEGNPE
Sequence of human CDK4 and genetically truncated (1-264) cyclin D3 (P30281 1-264 partner): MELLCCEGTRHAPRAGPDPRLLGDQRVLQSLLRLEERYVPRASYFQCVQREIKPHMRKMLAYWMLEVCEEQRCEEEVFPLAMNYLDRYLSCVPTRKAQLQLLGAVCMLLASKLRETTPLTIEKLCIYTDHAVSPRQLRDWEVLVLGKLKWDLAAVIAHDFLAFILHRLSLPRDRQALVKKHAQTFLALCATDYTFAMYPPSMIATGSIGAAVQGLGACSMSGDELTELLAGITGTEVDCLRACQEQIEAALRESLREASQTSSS

What does the source list for `CN(C)CCSc1ccc(S(=O)(=O)N2CCC(Nc3nc(N)c(C(=O)c4c(F)cccc4F)s3)CC2)cn1` [Example L1, 1-(4-Amino-2-{1-[6-(2-dimethylamino-ethylsulfanyl)-pyridine-3-sulfonyl]-piperidin-4-ylamino}-thiazol-5-yl)-1-(2,6-difluoro-phenyl)-methanone Dihydrochloride.]?
Ki (CDK2/Cyclin A): 0.62 nM; Ki [1]: 0.3 nM; IC50 (HCT-116 cell line; first HCT-116 column (c4)): 78 nM; IC50 (HCT-116 cell line; second HCT-116 column (c5)): > 500 nM

For `Nc1nc(NC2CCN(C(=O)COc3cc(Cl)c(Cl)cc3Cl)CC2)sc1C(=O)c1c(F)cccc1F` [Example R12], which “CDK2 % Inhibition at 0.03 μM” value (CDK2/Cyclin A; at 0.03 μM) is on record?
The value was −10%.

And the “CDK4 % Inhibition at 0.03 μM” value ([1]; at 0.03 μM)?
Its value is 23%.

What about the “HCT-116 % Inhibition at 0.1 μM” value (HCT-116 cell line; HCT-116 cells, at 0.1 μM) of the same compound?
The value was 0%.

And the “HCT-116 5 Inhibition at 0.25 μM” value (HCT-116 cell line; HCT-116 cells)?
Its value is 48.

Which results are given for `Nc1nc(NC2CCN(C(=O)CCC3CCCC3)CC2)sc1C(=O)c1c(F)cccc1F` [Example Q58]?
CDK2 % Inhibition at 0.03 μM (CDK2/Cyclin A; 0.03 μM compound, Table 4): 29%; CDK4 % Inhibition at 0.03 μM ([1]; 0.03 μM compound, Table 4): 53%; HCT-116 % Inhibition at 0.1 μM (HCT-116 cell line; [2]): 0%; HCT-116 % Inhibition at 0.25 μM (HCT-116 cell line; HCT-116, Table 4): 25%

`Nc1nc(NC2CCN(S(=O)(=O)c3ccc(-c4ccon4)s3)CC2)sc1C(=O)c1c(F)cccc1F` [Example P64] was tested. Which “CDK2 % Inhibition at 0.03 μM” value (CDK2/Cyclin A; 0.03 μM compound, Table 3) did it give?
Its value is 80%.

What about the “CDK4 % Inhibition at 0.03 μM” value ([1]; 0.03 μM compound, Table 3) of the same compound?
The value was 81%.

What about the “HCT-116 % Inhibition at 0.1 μM” value (HCT-116 cell line; 0.1 μM compound, HCT-116, Table 3) of the same compound?
Its value is 13%.

And the “HCT-116 % Inhibition at 0.25 μM” value (HCT-116 cell line; HCT-116, Table 3)?
The value was 31%.

`CN(C)CCc1ncc(S(=O)(=O)N2CCC(Nc3nc(N)c(C(=O)c4c(F)cccc4F)s3)CC2)cn1` [Example N12, (4-Amino-2-{1-[2-(2-dimethylamino-ethyl)-pyrimidine-5-sulfonyl]-piperidine-4-ylamino}-thiazol-5-yl)-(2,6-difluoro-phenyl)-methanone Hydrochloride Salt.] was tested. Which Ki (CDK2/Cyclin A) did it give?
Its Ki is 1.7 nM.

What about the Ki [1] of the same compound?
The Ki was 0.62 nM.

What about the IC50 (HCT-116 cell line; first HCT-116 column (c4)) of the same compound?
The IC50 was 67 nM.

And the IC50 (HCT-116 cell line; second HCT-116 column (c5))?
Its IC50 is 130 nM.

How did the Ki (CDK2/Cyclin A) turn out when `COc1ccc(C(=O)N2CCC(Nc3nc(N)c(C(=O)c4c(F)cccc4F)s3)CC2)cc1` [Example C2, {4-Amino-2-[1-(4-methoxy-benzoyl)-piperidin-4-ylamino]-thiazol-5-yl}-(2,6-difluoro-phenyl)-methanone] was run?
Its Ki is 65 nM.

What about the Ki [1] of the same compound?
Its Ki is 9.6 nM.

What about the IC50 (HCT-116 cell line; first HCT-116 column (c4)) of the same compound?
Its IC50 is 770 nM.

And the IC50 (HCT-116 cell line; second HCT-116 column (c5))?
The IC50 was 1900 nM.

How did the “CDK2 % Inhibition At 0.03 μM” value (CDK2/Cyclin A; 0.03 μM compound, Table 2) turn out when `Nc1nc(NC2CCN(C(=O)NCc3ccccc3)CC2)sc1C(=O)c1c(F)cccc1F` [Example O37] was run?
Its value is 40%.

And the “CDK4 % Inhibition at 0.03 μM” value ([1]; 0.03 μM compound, Table 2)?
Its value is 12%.

And the “HCT-116 % Inhibition at 0.25 μM” value (HCT-116 cell line; HCT-116, Table 2)?
Its value is 34%.

Which results are given for `Cn1cc(S(=O)(=O)N2CCC(Nc3nc(N)c(C(=O)c4c(F)cccc4F)s3)CC2)nc1Br` [Example F48, {4-Amino-2-[1-(2-bromo-1-methyl-1H-imidazole-4-sulfonyl)-piperidin-4-ylamino]-thiazol-5-yl}-(2,6-difluoro-phenyl)-methanone]?
Ki (CDK2/Cyclin A): 7.6 nM; inhibition at 0.05 µM [1]: 37%; IC50 (HCT-116 cell line; first HCT-116 column (c4)): 3200 nM; IC50 (HCT-116 cell line; second HCT-116 column (c5)): 5000 nM

Which results are given for `Cn1ccnc1-c1ccc(S(=O)(=O)N2CCC(Nc3nc(N)c(C(=O)c4c(F)cccc4F)s3)CC2)cn1` [Example I3, 1-(4-Amino-2-{1-[6-(1-methyl-1H-imidazol-2-yl)-pyridine-3-sulfonyl]-piperidin-4-ylamino}-thiazol-5-yl)-1-(2,6-difluoro-phenyl)-methanone Trifluoroacetic Acid Salt]?
Ki (CDK2/Cyclin A): 1.7 nM; Ki [1]: 2 nM; IC50 (HCT-116 cell line; first HCT-116 column (c4)): 160 nM; IC50 (HCT-116 cell line; second HCT-116 column (c5)): 500 nM

`COc1ccccc1CCC(=O)N1CCC(Nc2nc(N)c(C(=O)c3c(F)cccc3F)s2)CC1` [Example R175] was tested. Which “CDK2 % Inhibition at 0.03 μM” value (CDK2/Cyclin A; at 0.03 μM) did it give?
Its value is 19%.

What about the “CDK4 % Inhibition at 0.03 μM” value ([1]; at 0.03 μM) of the same compound?
Its value is 41%.

What about the “HCT-116 % Inhibition at 0.1 μM” value (HCT-116 cell line; HCT-116 cells, at 0.1 μM) of the same compound?
Its value is 0%.

What about the “HCT-116 5 Inhibition at 0.25 μM” value (HCT-116 cell line; HCT-116 cells) of the same compound?
The value was 47.

`Cc1onc(-c2c(Cl)cccc2Cl)c1C(=O)N1CCC(Nc2nc(N)c(C(=O)c3c(F)cccc3F)s2)CC1` [Example R26] was tested. Which “CDK2 % Inhibition at 0.03 μM” value (CDK2/Cyclin A; at 0.03 μM) did it give?
Its value is 17%.

And the “CDK4 % Inhibition at 0.03 μM” value ([1]; at 0.03 μM)?
Its value is 64%.

And the “HCT-116 % Inhibition at 0.1 μM” value (HCT-116 cell line; HCT-116 cells, at 0.1 μM)?
The value was 0%.

And the “HCT-116 5 Inhibition at 0.25 μM” value (HCT-116 cell line; HCT-116 cells)?
The value was 46.

Which results are given for `CCCCCCOc1ccc(C(=O)N2CCC(Nc3nc(N)c(C(=O)c4c(F)cccc4F)s3)CC2)cc1` [Example Q30]?
CDK2 % Inhibition at 0.03 μM (CDK2/Cyclin A; [3]): −4%; CDK4 % Inhibition at 0.03 μM [1, 3]: 42%; HCT-116 % Inhibition at 0.1 μM (HCT-116 cell line; [2]): 8%; HCT-116 % Inhibition at 0.25 μM (HCT-116 cell line; HCT-116, Table 4, 0.25 µM): 47%

Which Ki (CDK2/Cyclin A) does the source give for `Nc1nc(NC2CN(C(c3ccccc3)c3ccccc3)C2)sc1C(=O)c1c(F)cccc1F` [Example A14, [4-Amino-2-(1-benzhydryl-azetidin-3-ylamino)-thiazol-5-yl]-(2,6-difluoro-phenyl)-methanone] here?
Its Ki is over 2000 nM.

What about the Ki [1] of the same compound?
Its Ki is over 2000 nM.

And the IC50 (HCT-116 cell line; first HCT-116 column (c4))?
Its IC50 is over 5000 nM.

And the IC50 (HCT-116 cell line; second HCT-116 column (c5))?
The IC50 was over 5000 nM.

`Cc1cc(C)cc(C(=O)N2CCC(Nc3nc(N)c(C(=O)c4c(F)cccc4F)s3)CC2)c1` [Example R142] was tested. Which “CDK2 % Inhibition at 0.03 μM” value (CDK2/Cyclin A; at 0.03 μM) did it give?
Its value is 67%.

What about the “CDK4 % Inhibition at 0.03 μM” value ([1]; at 0.03 μM) of the same compound?
The value was 83%.

And the “HCT-116 % Inhibition at 0.1 μM” value (HCT-116 cell line; HCT-116 cells, at 0.1 μM)?
Its value is 86%.

And the “HCT-116 5 Inhibition at 0.25 μM” value (HCT-116 cell line; HCT-116 cells)?
Its value is 99.
